What follows are compounds tested against T1, human μ-opiate receptor (Homo sapiens, UniProt P35372) (assay: Affinity for the human μ-opiate receptor ([3H]-naloxone displacement, SPA, CHO-K1 membrane preparation)). Details: test substance 1 μmole/l; displacement of 1 nmole/l [3H]-naloxone; percentage inhibition of the specific binding.
T1 construct: purchased Nen company, Zaventem, Belgium RB-HOM; host or cells: CHO-K1 cells (membrane preparation)
T1 sequence (P35372 whole entry): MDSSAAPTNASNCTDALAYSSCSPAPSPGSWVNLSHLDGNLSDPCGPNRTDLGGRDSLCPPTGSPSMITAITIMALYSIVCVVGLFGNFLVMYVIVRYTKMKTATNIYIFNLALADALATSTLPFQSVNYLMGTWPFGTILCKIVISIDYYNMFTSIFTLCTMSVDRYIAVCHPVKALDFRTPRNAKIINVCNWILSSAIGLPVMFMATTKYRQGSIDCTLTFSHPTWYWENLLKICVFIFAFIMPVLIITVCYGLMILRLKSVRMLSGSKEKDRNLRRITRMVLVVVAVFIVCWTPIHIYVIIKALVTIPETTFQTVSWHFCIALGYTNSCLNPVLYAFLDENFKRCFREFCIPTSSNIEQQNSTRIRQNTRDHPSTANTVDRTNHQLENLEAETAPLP
Method: Method for Determining the Affinity for the Human μ-Opiate Receptor
The receptor affinity for the human μ-opiate receptor is determined in a homogeneous batch in microtiter plates. For this purpose dilution series of the substances to be tested are incubated for 90 minutes at room temperature with a receptor membrane preparation (15-40 μg protein/250 μl incubation batch) of CHO-K1 cells, which express the human μ-opiate receptor (RB-HOM receptor membrane preparation from the Nen company, Zaventem, Belgium), in the presence of 1 nmole/l of the radioactive ligand [^3H]-naloxone (NET719, Nen company, Zaventem, Belgium) and 1 mg WGA-SPA beads (wheat germ agglutinin SPA beads from Amersham/Pharmacia, Freiburg, Germany) in a total volume of 250 μl. 50 mmole/l of Tris-HCl supplemented with 0.05% sodium azide and with 0.06% bovine serum albumin is used as incubation buffer. In order to determine the non-specific binding, 25 μmole/l of naloxone is additionally added. After the end of the 90 minutes' incubation time the microtiter plates are centrifuged for 20 minutes at 1000 g and the radioactivity is measured in a beta counter (Microbeta-Trilux, PerkinElmer Wallac, Freiburg, Germany). The percentage displacement of the radioactive ligand from its binding to the human μ-opiate receptor at a concentration of the test substances of 1 μmole/l is determined and is given as percentage inhibition of the specific binding.
For CN(CCc1ccccc1)c1oc(C(C2CCC(C(c3ccc(Cl)cc3)N(C)C)CC2)N(C)c2ccccc2)nc1Cc1ccccc1 (stereo not shown) [compound 43, {4-benzyl-2-[{4-[(4-chlorophenyl)-dimethylaminomethyl]-cyclohexyl}-(methylphenylamine)-methyl]-oxazol-5-yl}-methylphenethylamine], the “μ-opioid receptor, % inhibition [1 μM]” value was 72%.

Same assay, conditions: test substance 1 μmole/l; displacement of 1 nmole/l [3H]-naloxone; percentage inhibition of the specific binding; read-out: μ-opioid receptor, % inhibition [1 μM]
CCN(CC)c1oc(C(C2CCC(C(c3ccc(Cl)cc3)N(C)C)CC2)N2CCN(Cc3ccccc3)CC2)nc1Cc1ccccc1 (stereo not shown) [compound 44, [4-benzyl-2-((4-benzylpiperazin-1-yl)-{4-[(4-chlorophenyl)-dimethylaminomethyl]-cyclohexyl}-methyl)-oxazol-5-yl]-diethylamine] was tested, and the inhibition at 1 µM was 67%. For CC1CC(C)CN(c2oc(C(C3CCC(C(c4cccs4)N(C)C)CC3)N3CCCCC3)nc2Cc2ccccc2)C1 (stereo not shown) [compound 45, [(4-{[4-benzyl-5-(3,5-dimethylpiperidin-1-yl)-oxazol-2-yl]-piperidin-1-yl-methyl}-cyclohexyl)-thiophen-2-yl-methyl]-dimethylamine], the inhibition at 1 µM was 71%. CN(CCc1ccccc1)c1oc(C(C2CCC(C(c3cccs3)N(C)C)CC2)N2CCCCC2)nc1Cc1ccccc1 (stereo not shown) [compound 46, (4-benzyl-2-{[4-(dimethylaminothiophen-2-yl-methyl)-cyclohexyl]-piperidin-1-yl-methyl}-oxazol-5-yl)-methylphenethylamine] gave an inhibition at 1 µM of 80%. CCN(CC)c1oc(C(C2CCC(C(c3cccs3)N(C)C)CC2)N2CCCCC2)nc1Cc1ccccc1 (stereo not shown) [compound 47, (4-benzyl-2-{[4-(dimethylamino-thiophen-2-yl-methyl)-cyclohexyl]-piperidin-1-yl-methyl}-oxazol-5-yl)-diethylamine] gave an inhibition at 1 µM of 73%. CN(C)C(c1cccs1)C1CCC(C(c2nc(Cc3ccccc3)c(N3CCSCC3)o2)N2CCCCC2)CC1 (stereo not shown) [compound 48, ({4-[(4-benzyl-5-thiomorpholin-4-yl-oxazol-2-yl)-piperidin-1-yl-methyl]-cyclohexyl}-thiophen-2-yl-methyl)-dimethylamine] showed an inhibition at 1 µM of 60%. Compound CCN(CC)C(c1nc(Cc2ccccc2)c(N(C)CCc2ccccc2)o1)C1CCC(C(c2cccs2)N(C)C)CC1 (stereo not shown) [compound 49, (4-benzyl-2-{diethylamino-[4-(dimethylamino-thiophen-2-yl-methyl)-cyclohexyl]-methyl}-oxazol-5-yl)-methylphenethylamine] has an inhibition at 1 µM of 90%. CCN(CC)c1oc(C(C2CCC(C(c3cccs3)N(C)C)CC2)N(CC)CC)nc1Cc1ccccc1 (stereo not shown) [compound 50, (4-benzyl-2-{diethylamino-[4-(dimethylaminothiophen-2-yl-methyl)-cyclohexyl]-methyl}-oxazol-5-yl)-diethylamine] was tested, and the inhibition at 1 µM was 83%. CCN(CC)C(c1nc(Cc2ccccc2)c(N2CCCC(C)C2)o1)C1CCC(C(c2cccs2)N(C)C)CC1 (stereo not shown) [compound 51, {[4-benzyl-5-(3-methylpiperidin-1-yl)-oxazol-2-yl]-[4-(dimethylamino-thiophen-2-yl-methyl)-cyclohexyl]-methyl}-diethylamine] gave an inhibition at 1 µM of 100%. CN(C)C(c1cccs1)C1CCC(C(c2nc(Cc3ccccc3)c(N3CCSCC3)o2)N(C)c2ccccc2)CC1 (stereo not shown) [compound 52, {(4-benzyl-5-thiomorpholin-4-yl-oxazol-2-yl)-[4-(dimethylaminothiophen-2-yl-methyl)-cyclohexyl]-methyl}-methylphenylamine] gave an inhibition at 1 µM of 92%. CC1CC(C)CN(c2oc(C(C3CCC(C(c4cccs4)N(C)C)CC3)N3CCN(Cc4ccccc4)CC3)nc2Cc2ccccc2)C1 (stereo not shown) [compound 53, ({4-[[4-benzyl-5-(3,5-dimethylpiperidin-1-yl)-oxazol-2-yl]-(4-benzyl-piperazin-1-yl)-methyl]-cyclohexyl}-thiophen-2-yl-methyl)-dimethylamine] showed an inhibition at 1 µM of 86%. Work on CN(CCc1ccccc1)c1oc(C(C2CCC(C(c3cccs3)N(C)C)CC2)N2CCN(Cc3ccccc3)CC2)nc1Cc1ccccc1 (stereo not shown) [compound 54, (4-benzyl-2-{(4-benzyl-piperazin-1-yl)-[4-(dimethylaminothiophen-2-yl-methyl)-cyclohexyl]-methyl}-oxazol-5-yl)-methyl-phenethylamine] yielded an inhibition at 1 µM of 74%. Compound CN(C)C(c1cccs1)C1CCC(C(c2nc(Cc3ccccc3)c(N3CCSCC3)o2)N2CCN(Cc3ccccc3)CC2)CC1 (stereo not shown) [compound 55, ({4-[(4-benzylpiperazin-1-yl)-(4-benzyl-5-thiomorpholin-4-yl-oxazol-2-yl)-methyl]-cyclohexyl}-thiophen-2-yl-methyl)-dimethylamine] has an inhibition at 1 µM of 63%. For CN(C)C(c1ccc(Cl)cc1)C1CCC(CC(c2nc(Cc3ccccc3)c(N3CCN(Cc4ccccc4)CC3)o2)N2CCCCC2)CC1 (stereo not shown) [compound 56, [(4-{2-[4-benzyl-5-(4-benzyl-piperazin-1-yl)-oxazol-2-yl]-2-piperidin-1-yl-ethyl}-cyclohexyl)-(4-chlorophenyl)-methyl]-dimethylamine], the inhibition at 1 µM was 62%. CC1CCN(c2oc(C(CC3CCC(C(c4ccc(Cl)cc4)N(C)C)CC3)N3CCCCC3)nc2Cc2ccccc2)CC1 (stereo not shown) [compound 57, [(4-{2-[4-benzyl-5-(4-methylpiperidin-1-yl)-oxazol-2-yl]-2-piperidin-1-yl-ethyl}-cyclohexyl)-(4-chlorophenyl)-methyl]-dimethylamine] gave an inhibition at 1 µM of 64%. CN(Cc1ccccc1)c1oc(C(CC2CCC(C(c3ccc(Cl)cc3)N(C)C)CC2)N2CCCCC2)nc1Cc1ccccc1 (stereo not shown) [compound 58, Benzyl-[4-benzyl-2-(2-{4-[(4-chlorophenyl)-dimethylaminomethyl]-cyclohexyl}-1-piperidin-1-yl-ethyl)-oxazol-5-yl]-methylamine] was tested, and the inhibition at 1 µM was 73%. In the case of CCN(CC)C(CC1CCC(C(c2ccc(Cl)cc2)N(C)C)CC1)c1nc(Cc2ccccc2)c(N2CCC(Cc3ccccc3)CC2)o1 (stereo not shown) [compound 59, (1-[4-benzyl-5-(4-benzylpiperidin-1-yl)-oxazol-2-yl]-2-{4-[(4-chlorophenyl)-dimethylaminomethyl]-cyclohexyl}-ethyl)-diethylamine], the inhibition at 1 µM is reported as 60%. CCN(CC)C(CC1CCC(C(c2ccc(Cl)cc2)N(C)C)CC1)c1nc(Cc2ccccc2)c(N2CCC(C)CC2)o1 (stereo not shown) [compound 60, (1-[4-benzyl-5-(4-methylpiperidin-1-yl)-oxazol-2-yl]-2-{4-[(4-chlorophenyl)-dimethylaminomethyl]-cyclohexyl}-ethyl)-diethylamine] showed an inhibition at 1 µM of 68%. CCN(CC)C(CC1CCC(C(c2ccc(Cl)cc2)N(C)C)CC1)c1nc(Cc2ccccc2)c(N(C)Cc2ccccc2)o1 (stereo not shown) [compound 61, Benzyl-[4-benzyl-2-(2-{4-[(4-chlorophenyl)-dimethylaminomethyl]-cyclohexyl}-1-diethylamino-ethyl)-oxazol-5-yl]-methylamine] gave an inhibition at 1 µM of 76%. Compound CN(C)C(c1ccc(Cl)cc1)C1CCC(CC(c2nc(Cc3ccccc3)c(N3CCC(Cc4ccccc4)CC3)o2)N2CCN(Cc3ccccc3)CC2)CC1 (stereo not shown) [compound 62, [{4-[2-[4-benzyl-5-(4-benzyl-piperidin-1-yl)-oxazol-2-yl]-2-(4-benzyl-piperazin-1-yl)-ethyl]-cyclohexyl}-(4-chlorophenyl)-methyl]-dimethylamine] has an inhibition at 1 µM of 87%. In the case of CN(C)C(c1ccc(Cl)cc1)C1CCC(CC(c2nc(Cc3ccccc3)c(N3CCN(Cc4ccccc4)CC3)o2)N2CCN(Cc3ccccc3)CC2)CC1 (stereo not shown) [compound 63, [{4-[2-[4-benzyl-5-(4-benzylpiperazin-1-yl)-oxazol-2-yl]-2-(4-benzyl-piperazin-1-yl)-ethyl]-cyclohexyl}-(4-chlorophenyl)-methyl]-dimethylamine], the inhibition at 1 µM is reported as 78%. CC1CCN(c2oc(C(CC3CCC(C(c4ccc(Cl)cc4)N(C)C)CC3)N3CCN(Cc4ccccc4)CC3)nc2Cc2ccccc2)CC1 (stereo not shown) [compound 64, [{4-[2-[4-benzyl-5-(4-methylpiperidin-1-yl)-oxazol-2-yl]-2-(4-benzyl-piperazin-1-yl)-ethyl]-cyclohexyl}-(4-chlorophenyl)-methyl]-dimethylamine] was tested, and the inhibition at 1 µM was 69%. CC1CCN(c2oc(C(CC3CCC(C(c4ccc(F)cc4)N(C)C)CC3)N3CCCCC3)nc2Cc2ccccc2)CC1 (stereo not shown) [compound 65, [(4-{2-[4-benzyl-5-(4-methylpiperidin-1-yl)-oxazol-2-yl]-2-piperidin-1-yl-ethyl}-cyclohexyl)-(4-fluorophenyl)-methyl]-dimethylamine] showed an inhibition at 1 µM of 61%. Compound CN(Cc1ccccc1)c1oc(C(CC2CCC(C(c3ccc(F)cc3)N(C)C)CC2)N2CCCCC2)nc1Cc1ccccc1 (stereo not shown) [compound 66, Benzyl-[4-benzyl-2-(2-{4-[dimethylamino-(4-fluorophenyl)-methyl]-cyclohexyl}-1-piperidin-1-yl-ethyl)-oxazol-5-yl]-methylamine] has an inhibition at 1 µM of 65%. CCN(CC)C(CC1CCC(C(c2ccc(F)cc2)N(C)C)CC1)c1nc(Cc2ccccc2)c(N2CCC(Cc3ccccc3)CC2)o1 (stereo not shown) [compound 67, (1-[4-benzyl-5-(4-benzyl-piperidin-1-yl)-oxazol-2-yl]-2-{4-[dimethylamino-(4-fluorophenyl)-methyl]-cyclohexyl}-ethyl)-diethylamine] was tested, and the inhibition at 1 µM was 64%.

Reference: patent US7608619B2, “Substituted oxazole compounds with analgesic activity” (Gruenenthal GmbH, priority 2005, dated 2009)
